Reference: patent US20080292619A1, “Pharmaceutical Composition Containing Meltrin Antagonist” (MOCHIDA PHARMACEUTICAL CO., LTD., priority 2004, published 2008)
In the oligonucleotide strings, read from the 5' end, every base follows the letter of its sugar. An asterisk marks phosphorothioate; unmarked linkages are phosphodiester. Other units and linkages are bracketed, terminal groups are in braces. A string of capitals states the bases alone. d = 2'-deoxy (DNA)

Tests used:
human preadipocyte [1] = assay: Adipocyte proliferation and differentiation, neutral fat accumulation (Adipo Red); format: cell-based; conditions: antibody final concentration 5 μL/mL; 15 days; AdipoRed
Protocol: The differentiation medium was prepared by adding supplement kit PGM SingleQuots, #PT-9500, Lot.08101163 (Sanko Junyaku Co., Ltd.) to 100 mL of growth medium. 50 μL of the supernatant was removed from the 96 well plate prepared in Example 12, and 50 μL of the siRNA or the antisense oligonucleotide prepared in the differentiation medium was added, and incubation was conducted in a CO2 incubator for 5 days to 15 days.
The amount of neutral fat accumulated in the adipocyte was determined by fluorometry using Adipo Red stain.
After taking the 96 well plate out of the CO2 incubator, the plate was allowed to stand until it cooled to room temperature. The plate was centrifuged at 300 g (1200 rpm) for 10 minutes at room temperature to remove the medium. Next, the plate was gently washed with 200 μL/well of PBS (Sigma), and 200 μL/well of PBS was added to the well.
Next, 5 μL/well of Adipo Red Assay Reagent (Adipo Red, Cat. #PT-7009, Lot.3F0497, A Cambrex Company) was added, and the plate was allowed to stand at room temperature for at least 10 minutes to thereby stain the neutral fat that had accumulated in the adipocyte. The fluorescence intensity was measured in a fluorometer at an excitation wavelength of 485 nm and an emission wavelength of 535 nm to thereby determine the fat accumulation.
According to the method of Example 15, M82463 was added to the human preadipocyte incubation system at a concentration of 0.3 to 10 μg/mL so that the final concentration of the DMSO was 0.2%. As a control, a group having only the DMSO added to a final concentration of 0.2% was used.
After preparation of the antibody to the concentration of 0.100 mg/mL with physiological saline, 9 volumes of adipocyte differentiation medium was added to 1 volume of the antibody solution, and the solution was sterilized by filtering through a filter having a diameter of 0.22 μm (MILLEX-GV 0.22 μm Filter unit, 3slgv013SL, Lot. R2NN83622, MILLIPORE). […]

human preadipocyte [2] = assay: Effect of antisense compound on adipocyte proliferation and differentiation (Adipo Red); format: cell-based; conditions: 300 nM; human preadipocyte
Protocol: First, human preadipocyte (Human Preadipocytes-sq POIETICS #PT-5020, Sanko Junyaku Co., Ltd.) was suspended in growth medium (#PT-8200, Sanko Junyaku Co., Ltd.), and after adding the suspension to a 96 well culture plate at 1×10^4 cells/well/100 μL, the cells were cultured overnight at 37° C. in the presence of 5% CO2.
The preadipocyte was cultured overnight, and after washing the preadipocyte twice with serum-free DMEM, Opti-MEM was added at 80 μL/well.
Gene transfection reagent Lipofectin was diluted with Opti-MEM to 20 μg/mL, and the dilution was allowed to stand at room temperature for 30 minutes. Next, the antisense oligodeoxynucleotide synthesized as described above was heated at 90° C. for 3 minutes, and after quenching on ice, diluted with Opti-MEM to a concentration 10 times higher than the final concentration. Equal amounts of the Lipofectin in Opti-MEM and the antisense oligodeoxynucleotide in Opti-MEM were mixed, and the mixture was incubated at room temperature for 15 minutes and added to 96 well plate at 20 μL/well. After incubating at 37° C. for 4 hours in the presence of 5% CO2, it was used for examination as described below.
The differentiation medium was prepared by using growth medium (#PT-8200, Sanko Junyaku Co., Ltd.) and supplement kit (PGM Single Quots, #PT-9500, Sanko Junyaku Co., Ltd.) according to the instruction of the kit. Next, the culture supernatant containing the Lipofectin was removed from the 96 well plate prepared in the above (2), and the plate was washed twice with serum-free DMEM, and the differentiation medium prepared as described above was added at 100 μL/well. The plate was then incubated at 37° C. for 5 days to 15 days in the presence of 5% CO2.
Accumulation of the neutral fat in the adipocyte was determined by fluorometry using Adipo Red stain.
After taking the 96 well plate out of the CO2 incubator, the plate was allowed to stand until it reached room temperature. The plate was centrifuged at 300 g (1200 rpm) for 10 minutes at room temperature to remove the medium. Next, after gently washing with PBS (SIGMA) at 200 μL/well, PBS was added to the well at 200 μL/well. Next, Adipo Red Assay Reagent (Adipo Red, Cat. #PT-7009, Lot.3F0497, A Cambrex Company) was added at 5 μL/well, and the plate was allowed to stand at room temperature for at least 10 minutes to thereby stain the neutral fat accumulated in the adipocyte. The fat accumulation was determined by measuring fluorescence intensity in a fluorometer at an excitation wavelength of 485 nm and an emission wavelength of 535 nm.
The suppression rate of the adipocyte differentiation was calculated by converting the fluorescence intensity of the well transfected with the antisense compound in relation to the fluorescence intensity of the well without transfection with the antisense compound which was assumed as 100%. The result was rated “+” when the suppression rate was at least 25%, “++” when the suppression rate was at least 50%, and “+++” when the suppression rate was at least 75%.

2 (dC*dT*dG*dG*dT*dT*dA*dA*dT*dG*dG*dT*dT*dC*dA*dC*dA*dT*dC*dT) [compound 2]
Suppressive effect (human preadipocyte [1]): ++ (suppression by 50% or higher)
Supression of adipose differentiation 300 nM (human preadipocyte [2]): ++ (“++” when the suppression rate was at least 50%)
